The source of these data is US11628216B2 (priority 2013, dated 2023).

Data set [1] has as its system antibodies of Example 3 (antibody of the invention against 6-acetylmorphine). Type of data set: binding. The settings on record: 6-AM Conc. 10 ng/mL. Here is the method: Cross reactivity to heroin metabolites and other common structurally related opiates may be evaluated using the antibodies described herein. Immunoassays are constructed using the antibodies of Example 3, configured to operate in a competitive mode immunoassay format, in which the analogue compounds of the invention are compared with other related compounds for cross reaction against 6-acetylmorphine. […] Aliquots of labeled 6-acetylmorphine at 10 ng/mL are incubated in the presence of competing compound with the antibody of the invention, and the level of interaction of the competitor compound determined as a reduction in measured signal compared with the situation where only 6-acetylmorphine is present.
Cross reactivity to heroin metabolites and other common structurally related opiates were evaluated using the antibodies as described with reference to Example 3. […] Aliquots of labeled 6-acetylmorphine at 10 ng/mL were incubated in the presence of competing compound with the antibody of the invention, and the level of interaction of the competitor compound determined as a reduction in measured signal compared with the situation where only 6-acetylmorphine was present.

For data set [2] the following is noted: after last heroin use; cited from earlier work.
The subject of data set [3] is selected monoclonal antibody against 6-AM. Briefly: competitive assay for 6-AM developed with a selected antibody. Type of data set: binding. Conditions: at clinically relevant concentrations. Here is the method:
The bacterial cells from each antibody library are streaked on agar to generate colonies. The colonies, coding for monoclonal antibodies, are used to inoculate culture medium in individual wells in 96-well plates. The liquid cultures are grown overnight and used to generate frozen cell stocks. The frozen cell stocks are used to generate duplicate 96-well plate cultures, followed by expression and purification of the monoclonal antibodies in soluble form in microgram quantities.
The bacterial cells from each antibody library were streaked on agar to generate colonies. The colonies, coding for monoclonal antibodies, were used to inoculate culture medium in individual wells in 96-well plates. The liquid cultures were grown overnight and used to generate frozen cell stocks. The frozen cell stocks were used to generate duplicate 96-well plate cultures, followed by expression and purification of the monoclonal antibodies in soluble form in microgram quantities.

Molecules are shown by their SMILES. Where two headings read alike, the source gives them in different places.

In the case of `CC(=O)O[C@H]1C=CC2[C@H]3Cc4ccc(O)c5c4[C@@]2(CCN3C)[C@H]1O5` (stereo partly drawn) [6-Acetylmorphine], in data set [1] (Analyte Conc. 10 ng/mL), the “Cross-Reactivity (%)” value came to 100%. Moreover, the “time 6-AM remains in the urine” value in data set [2] is “no more than 24 hours”.
As to `CC(=O)Oc1ccc2c3c1O[C@H]1[C@@H](OC(C)=O)C=C[C@H]4[C@@H](C2)N(C)CC[C@@]341` [Heroin, Diacetylmorphine], the “Cross-Reactivity (%)” value in data set [1] (Analyte Conc. 750 ng/mL) is reported as 1.3%.
`CN1CC[C@]23c4c5ccc(O[C@@H]6O[C@H](C(=O)O)[C@@H](O)[C@H](O)[C@H]6O)c4O[C@H]2[C@@H](O)C=C[C@H]3[C@H]1C5` [Morphine 3-D-glucuronide]: the crossreactivity result in data set [3] was “no crossreactivity”.
As to `CN1CC[C@]23c4c5ccc(O)c4O[C@H]2[C@@H](O[C@@H]2O[C@H](C(=O)O)[C@@H](O)[C@H](O)[C@H]2O)C=C[C@H]3[C@H]1C5` [Morphine 6-D-glucuronide], the crossreactivity entry in data set [3] was “no crossreactivity”.
As to `CN1CC[C@]23c4c5ccc(O)c4O[C@H]2[C@@H](O)C=C[C@H]3[C@H]1C5` [Morphine], the crossreactivity entry in data set [3] is listed as “no crossreactivity”.
